Experimental data: ChEMBL document CHEMBL1201862, “PubChem BioAssay data set” (2004)
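Cells were grown in 96-well plates and exposed to each compound for 48 hours at five concentrations; endpoints were interpolated linearly between bracketing concentrations, or set to the highest concentration if not reached. GI50 marks 50% less growth.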 Active and inactive are the calls of the source. No stated cut-off is given here; in the data, active = GI50 up to about 1.1 µM and inactive = higher.

Tests used:
Assay in all cases: NCI anticancer screen, dose series, 48 h
[1] = tested on: A549
[2] = tested on: OVCAR-8
[3] = tested on: HOP-62
[4] = tested on: SN12C
[5] = tested on: BT-549
[6] = tested on: NCI-H522
[7] = tested on: NCI-H460
[8] = tested on: MOLT-4
[9] = tested on: HT-29
[10] = tested on: KM12
[11] = tested on: MDA-MB-231
[12] = tested on: NCI-H23
[13] = tested on: SK-MEL-2
[14] = tested on: SNB-75
[15] = tested on: OVCAR-4
[16] = tested on: HCT-116
[17] = tested on: SK-OV-3
[18] = tested on: TK-10
[19] = tested on: COLO 205
[20] = tested on: LOX IMVI
[21] = tested on: MDA-MB-435
[22] = tested on: 786-0
[23] = tested on: RXF 393
[24] = tested on: DU-145
[25] = tested on: CCRF-CEM
[26] = tested on: ACHN
[27] = tested on: T47D
[28] = tested on: SF-268
[29] = tested on: HL-60
[30] = tested on: UACC-257
[31] = tested on: SK-MEL-28
[32] = tested on: SW-620
[33] = tested on: SR
[34] = tested on: OVCAR-5
[35] = tested on: UO-31
[36] = tested on: HCC 2998
[37] = tested on: EKVX
[38] = tested on: IGROV-1
[39] = tested on: Hs-578T
[40] = tested on: SK-MEL-5
[41] = tested on: HOP-92
[42] = tested on: HCT-15
[43] = tested on: CAKI-1
[44] = tested on: UACC-62
[45] = tested on: PC-3
[46] = tested on: OVCAR-3
[47] = tested on: K562
[48] = tested on: SF-295
[49] = tested on: M14
[50] = tested on: NCI/ADR-RES
[51] = tested on: U-251
[52] = tested on: Malme-3M
[53] = tested on: SNB-19
[54] = tested on: MCF7
[55] = tested on: MDA-N
[56] = tested on: RPMI-8226
[57] = tested on: A498
[58] = tested on: NCI-H226
[59] = tested on: SF-539

## CC[C@]1(Cc2ccc(OC)c(OC)c2)C=[N+]([O-])O[C@H](OC2CCCC2(c2ccccc2)c2ccccc2)[C@@H]1OC(C)=O (some centres not stated)
[1]
  GI50: 3.54 µM (inactive)
[2]
  GI50: 2.67 µM (inactive)
[3]
  GI50: 12.4 µM (inactive)
[4]
  GI50: 4.12 µM (inactive)
[5]
  GI50: 8.47 µM (inactive)
[6]
  GI50: 2.83 µM (inactive)
[7]
  GI50: 5.4 µM (inactive)
[8]
  GI50: 2.67 µM (inactive)
[9]
  GI50: 1.98 µM (inactive)
[10]
  GI50: 2.84 µM (inactive)
[11]
  GI50: 11 µM (inactive)
[12]
  GI50: 5.25 µM (inactive)
[13]
  GI50: 4.62 µM (inactive)
[14]
  GI50: 2.82 µM (inactive)
[15]
  GI50: 4.84 µM (inactive)
[16]
  GI50: 2.08 µM (inactive)
[17]
  GI50: 14.5 µM (inactive)
[18]
  GI50: 3.02 µM (inactive)
[19]
  GI50: 3.35 µM (inactive)
[20]
  GI50: 2 µM (inactive)
[21]
  GI50: 2.41 µM (inactive)
[22]
  GI50: 1.6 µM (inactive)
[23]
  GI50: 1.52 µM (inactive)
[24]
  GI50: 3.03 µM (inactive)
[25]
  GI50: 4.1 µM (inactive)
[26]
  GI50: 2.4 µM (inactive)
[27]
  GI50: 2.96 µM (inactive)
[28]
  GI50: 4.76 µM (inactive)
[29]
  GI50: 3.36 µM (inactive)
[30]
  GI50: 4.61 µM (inactive)
[31]
  GI50: 1.81 µM (inactive)
[32]
  GI50: 3.44 µM (inactive)
[33]
  GI50: 2.79 µM (inactive)
[34]
  GI50: 16.7 µM (inactive)
[35]
  GI50: 3.12 µM (inactive)
[36]
  GI50: 2.74 µM (inactive)
[37]
  GI50: 5.89 µM (inactive)
[38]
  GI50: 2.08 µM (inactive)
[39]
  GI50: 13.1 µM (inactive)
[40]
  GI50: 3.55 µM (inactive)
[41]
  GI50: 3.21 µM (inactive)
[42]
  GI50: 3.37 µM
[43]
  GI50: 2.95 µM (inactive)
[44]
  GI50: 2.68 µM (inactive)
[45]
  GI50: 4.66 µM (inactive)
[46]
  GI50: 1.65 µM (inactive)
[47]
  GI50: 2.98 µM (inactive)
[48]
  GI50: 4.92 µM (inactive)
[49]
  GI50: 4.59 µM (inactive)
[50]
  GI50: 2.59 µM (inactive)
[51]
  GI50: 7.94 µM (inactive)
[52]
  GI50: 2.03 µM (inactive)
[53]
  GI50: 5.89 µM (inactive)
[54]
  GI50: 2.43 µM (inactive)

## O=C(Nc1ccccc1)OC1OC(COC(=O)c2ccccc2)C(OC(=O)c2ccccc2)C1OS(=O)(=O)c1ccc([N+](=O)[O-])cc1 (configuration not stated)
[55]
  GI50: > 100 µM (inactive)
[1]
  GI50: > 100 µM (inactive)
[2]
  GI50: > 100 µM (inactive)
[3]
  GI50: > 100 µM (inactive)
[4]
  GI50: > 100 µM (inactive)
[5]
  GI50: > 100 µM (inactive)
[6]
  GI50: 40.3 µM (inactive)
[7]
  GI50: > 100 µM (inactive)
[8]
  GI50: > 100 µM (inactive)
[9]
  GI50: > 100 µM (inactive)
[10]
  GI50: > 100 µM (inactive)
[12]
  GI50: > 100 µM (inactive)
[13]
  GI50: > 100 µM (inactive)
[15]
  GI50: > 100 µM (inactive)
[16]
  GI50: > 100 µM (inactive)
[56]
  GI50: > 100 µM (inactive)
[17]
  GI50: > 100 µM (inactive)
[18]
  GI50: > 100 µM (inactive)
[19]
  GI50: > 100 µM (inactive)
[20]
  GI50: > 100 µM (inactive)
[21]
  GI50: > 100 µM (inactive)
[22]
  GI50: > 100 µM (inactive)
[57]
  GI50: > 100 µM (inactive)
[23]
  GI50: > 100 µM (inactive)
[24]
  GI50: > 100 µM (inactive)
[25]
  GI50: > 100 µM (inactive)
[26]
  GI50: > 100 µM (inactive)
[27]
  GI50: > 100 µM (inactive)
[28]
  GI50: > 100 µM (inactive)
[29]
  GI50: 86.7 µM (inactive)
[30]
  GI50: > 100 µM (inactive)
[31]
  GI50: > 100 µM (inactive)
[32]
  GI50: > 100 µM (inactive)
[33]
  GI50: > 100 µM (inactive)
[34]
  GI50: > 100 µM (inactive)
[35]
  GI50: > 100 µM (inactive)
[36]
  GI50: > 100 µM (inactive)
[37]
  GI50: 63.8 µM (inactive)
[38]
  GI50: > 100 µM (inactive)
[39]
  GI50: 78.7 µM (inactive)
[40]
  GI50: > 100 µM (inactive)
[41]
  GI50: > 100 µM (inactive)
[42]
  GI50: > 100 µM
[43]
  GI50: > 100 µM (inactive)
[44]
  GI50: > 100 µM (inactive)
[45]
  GI50: > 100 µM (inactive)
[46]
  GI50: 74.6 µM (inactive)
[47]
  GI50: > 100 µM (inactive)
[48]
  GI50: > 100 µM (inactive)
[49]
  GI50: > 100 µM (inactive)
[50]
  GI50: > 100 µM (inactive)
[51]
  GI50: > 100 µM (inactive)
[58]
  GI50: > 100 µM (inactive)
[52]
  GI50: > 100 µM (inactive)
[53]
  GI50: > 100 µM (inactive)
[59]
  GI50: > 100 µM (inactive)
[54]
  GI50: > 100 µM (inactive)

## CN(C)/C=N\c1nncc2[nH]cnc12
[55]
  GI50: 79.8 µM (inactive)
[1]
  GI50: > 100 µM (inactive)
[2]
  GI50: > 100 µM (inactive)
[3]
  GI50: 60.1 µM (inactive)
[4]
  GI50: > 100 µM (inactive)
[5]
  GI50: > 100 µM (inactive)
[6]
  GI50: > 100 µM (inactive)
[8]
  GI50: 77.6 µM (inactive)
[9]
  GI50: > 100 µM (inactive)
[10]
  GI50: > 100 µM (inactive)
[12]
  GI50: > 100 µM (inactive)
[13]
  GI50: > 100 µM (inactive)
[14]
  GI50: > 100 µM (inactive)
[15]
  GI50: > 100 µM (inactive)
[16]
  GI50: 87.3 µM (inactive)
[56]
  GI50: > 100 µM (inactive)
[17]
  GI50: > 100 µM (inactive)
[18]
  GI50: 73.6 µM (inactive)
[19]
  GI50: > 100 µM (inactive)
[20]
  GI50: 55.8 µM (inactive)
[21]
  GI50: 63.5 µM (inactive)
[22]
  GI50: > 100 µM (inactive)
[57]
  GI50: > 100 µM (inactive)
[25]
  GI50: 46.1 µM (inactive)
[26]
  GI50: > 100 µM (inactive)
[27]
  GI50: > 100 µM (inactive)
[29]
  GI50: > 10 µM (inactive)
[30]
  GI50: 92.7 µM (inactive)
[31]
  GI50: > 100 µM (inactive)
[32]
  GI50: 82.6 µM (inactive)
[34]
  GI50: > 100 µM (inactive)
[35]
  GI50: 98.6 µM (inactive)
[36]
  GI50: > 100 µM (inactive)
[37]
  GI50: > 100 µM (inactive)
[38]
  GI50: > 100 µM (inactive)
[40]
  GI50: > 100 µM (inactive)
[41]
  GI50: 19.9 µM (inactive)
[42]
  GI50: > 100 µM
[43]
  GI50: > 100 µM (inactive)
[44]
  GI50: 51.8 µM (inactive)
[45]
  GI50: > 100 µM (inactive)
[46]
  GI50: > 100 µM (inactive)
[47]
  GI50: 43.6 µM (inactive)
[48]
  GI50: > 100 µM (inactive)
[49]
  GI50: 55.8 µM (inactive)
[50]
  GI50: > 100 µM (inactive)
[51]
  GI50: > 100 µM (inactive)
[58]
  GI50: > 100 µM (inactive)
[52]
  GI50: 68.7 µM (inactive)
[59]
  GI50: > 100 µM (inactive)
[54]
  GI50: > 100 µM (inactive)
